In patent publication US20080027052A1, “METHODS FOR TREATING CYSTIC KIDNEY DISEASE” (priority 2006, published 2008):

Experiments:
Type in all cases: in vivo
male Cy/+ rat [1] = experiment: Kidney assessment (cyst volume, fibrosis, kidney weight, histology) in male Cy/+ rats; conditions: for Cyst Vol / Cyst Vol as a % of BW / Total Kidney weight: at sacrifice; for Cyst Vol / Cyst Vol as a % of BW / Total Kidney weight / Fibrosis Score: n = 7-8, mean ± SD; for Histologic appearance of the cysts (FIG. 7): representative kidney sections, compared with control cystic animals; for Fibrosis Score: semi-quantitative score 0-4+, picrosirius red
Description: The Cy rat is a Han:SPRD rat with a spontaneous genetic mutation called Cy. These animals develop progressive kidney disease due to the formation of multiple kidney tubule cysts that arise from both the proximal and later the distal tubule. The colony of rats has been maintained through successive breeding of two heterozygous Cy/+ rats. This is an autosomal dominant gene, such that at birth, ¼ of the animals are normal, ½ are heterozygotes (Cy/+) and ¼ are homozygotes (Cy/Cy). Homozygotes (Cy/Cy) of either sex are easily identified after approximately 10 days of age by abdominal palpation and elevations in blood urea nitrogen (BUN), a finding used to verify parental heterozygosity for PKD. Homozygous Cy/Cy rats develop massively enlarged kidneys and severe azotemia and die by 4 weeks of age. Heterozygote male animals develop progressive chronic kidney disease (CKD) with rise in blood urea nitrogen (BUN) by 10 weeks and death from uremia by 40-50 weeks. Heterozygote female animals develop progressive CKD with rise in BUN not detected until 20 weeks, with death at 80 weeks. […] Average food intake was 50 g/kg/day. At the time of sacrifice, rats were anesthetized with sodium pentobarbitol ([…], i.p.) and weighed. Blood was obtained for determination of serum creatinine, BUN, intact PTH, Ca and PO4. The left kidney was removed, weighed and frozen in liquid nitrogen for subsequent batch analyses. The right kidney was perfusion fixed with 4% paraformaldehyde in phosphate buffer (ph 7.4). The tissue was embedded in paraffin for histological studies. Cyst volume density was determined by point count stereology from randomly selected fields from hematoxylin and cosin (H&E) stained slides. Fibrosis was graded semi-quantitatively (scored 0-4+) from picrosirius red stained slides. The reviewer was blinded to the treatment group. Both measure were also standardized by body weight (for cyst volume) or kidney weight (for fibrosis). Four micron transverse tissue section of the kidney, including cortex and medulla, was stained with hematoxylin-cosin. Five fields/sections, from cortex through outer medulla, were evaluated for the degree of cystic change. Other sections were stained with picrosirius red for the evaluation of fibrosis. Fibrosis was scored (0-4+) for the relative amount of collagen within the interstitium from picrosirius red staining of collagen fibers. These assessments are the standard methods used to assess response to therapy in animal models of kidney disease (Gattone et al, Nature Medicine 9: 1323-6, 2003). Cy−/+ (cystic) male rats were assigned to one of four treatment groups (Table 5) and were phenotyped (by BUN) at 10 weeks and again at 20 weeks to ensure animals were cystic. […] Comparator groups included Compound A with calcium in the drinking water versus calcium alone. These comparator groups allow differentiation of the effects of changes in PTH and calcium from a direct action of the calcimimetic. FIG. 1 schematically represents the study design. At 10 weeks, animals were phenotyped. At 20 weeks, animals were started on the treatment arm. Half the animals were sacrificed at 34 weeks, half the animals were sacrificed 38 weeks. At each time point, samples from 8 animals were perfusion fixed with paraformaldehyde for CT scan, bone histology and aorta histology, samples from 8 animals were saline perfused for HCl extraction to determine calcium and phosphate content, and blood samples from 16 animals were collected for blood tests (PTH, calcium, phosphorus, BUN). Animals in the paraformaldehyde fixation group received tetracycline administration four and one week prior to sacrifice to label the bone for morphometric analyses. For the purpose of this application, only the laboratory and kidney end points will be presented. All data was analyzed by a statistician. The BUN was analyzed only at week 20 and end point (week 34 or 38) and was analyzed by ANCOVA adjusting for baseline (week 20) values. […]

male Cy/+ rat [2] = experiment: Blood laboratory values in male Cy/+ rats treated from week 20; conditions: for BUN / Calcium / Phosphorus / PTH: 38 week time point, treatment from week 20; for PTH: Compound A 0.05% w/w in chow, 3% Ca gluconate in water, mean ± SD
Description: The Cy rat is a Han:SPRD rat with a spontaneous genetic mutation called Cy. These animals develop progressive kidney disease due to the formation of multiple kidney tubule cysts that arise from both the proximal and later the distal tubule. The colony of rats has been maintained through successive breeding of two heterozygous Cy/+ rats. This is an autosomal dominant gene, such that at birth, ¼ of the animals are normal, ½ are heterozygotes (Cy/+) and ¼ are homozygotes (Cy/Cy). Homozygotes (Cy/Cy) of either sex are easily identified after approximately 10 days of age by abdominal palpation and elevations in blood urea nitrogen (BUN), a finding used to verify parental heterozygosity for PKD. Homozygous Cy/Cy rats develop massively enlarged kidneys and severe azotemia and die by 4 weeks of age. Heterozygote male animals develop progressive chronic kidney disease (CKD) with rise in blood urea nitrogen (BUN) by 10 weeks and death from uremia by 40-50 weeks. Heterozygote female animals develop progressive CKD with rise in BUN not detected until 20 weeks, with death at 80 weeks. […] Average food intake was 50 g/kg/day. At the time of sacrifice, rats were anesthetized with sodium pentobarbitol ([…], i.p.) and weighed. Blood was obtained for determination of serum creatinine, BUN, intact PTH, Ca and PO4. The left kidney was removed, weighed and frozen in liquid nitrogen for subsequent batch analyses. The right kidney was perfusion fixed with 4% paraformaldehyde in phosphate buffer (ph 7.4). The tissue was embedded in paraffin for histological studies. Cyst volume density was determined by point count stereology from randomly selected fields from hematoxylin and cosin (H&E) stained slides. Fibrosis was graded semi-quantitatively (scored 0-4+) from picrosirius red stained slides. The reviewer was blinded to the treatment group. Both measure were also standardized by body weight (for cyst volume) or kidney weight (for fibrosis). Plasma urea and creatinine were determined using colorimetric assays (Urea-Sigma 640 creatinine kit). Intact PTH was determined by ELISA; Alpacoa, and Ca and PO4 were done with using colorimeteric analyses (Sigma). Cy−/+ (cystic) male rats were assigned to one of four treatment groups (Table 5) and were phenotyped (by BUN) at 10 weeks and again at 20 weeks to ensure animals were cystic. […] Comparator groups included Compound A with calcium in the drinking water versus calcium alone. These comparator groups allow differentiation of the effects of changes in PTH and calcium from a direct action of the calcimimetic. FIG. 1 schematically represents the study design. At 10 weeks, animals were phenotyped. At 20 weeks, animals were started on the treatment arm. Half the animals were sacrificed at 34 weeks, half the animals were sacrificed 38 weeks. At each time point, samples from 8 animals were perfusion fixed with paraformaldehyde for CT scan, bone histology and aorta histology, samples from 8 animals were saline perfused for HCl extraction to determine calcium and phosphate content, and blood samples from 16 animals were collected for blood tests (PTH, calcium, phosphorus, BUN). Animals in the paraformaldehyde fixation group received tetracycline administration four and one week prior to sacrifice to label the bone for morphometric analyses. For the purpose of this application, only the laboratory and kidney end points will be presented. All data was analyzed by a statistician. The BUN was analyzed only at week 20 and end point (week 34 or 38) and was analyzed by ANCOVA adjusting for baseline (week 20) values. The PTH, calcium, and phosphorus were analyzed at baseline (week 20), a mid point, and end point (week 34, 38). These values were compared by a mixed model adjusting for baseline values and time point. The kidney assessments were only measured at end point at the time of sacrifice, and therefore the measures were compared by ANCOVA and within group comparisons.

male Cy/+ rat [3] = experiment: Kidney assessment (cyst volume, fibrosis, kidney weight, histology) in male Cy/+ rats; conditions: ANOVA with post group comparisons, all p<0.01, HCl

| SMILES | Cyst Vol (male Cy/+ rat [1]) | Cyst Vol as a % of BW (male Cy/+ rat [1]) | Total Kidney weight (male Cy/+ rat [1]) | Histologic appearance of the cysts (FIG. 7) (male Cy/+ rat [1]) | Fibrosis Score (male Cy/+ rat [1]) | BUN (male Cy/+ rat [2]) | Calcium (male Cy/+ rat [2]) | Phosphorus (male Cy/+ rat [2]) | PTH (male Cy/+ rat [2]) | Change in BUN (week 20 to week 38) = Delta BUN (male Cy/+ rat [2]) | Cyst volume and fibrosis compared to control (FIGS. 3-6) (male Cy/+ rat [3]) | Cyst volume and fibrosis compared to control (FIGS. 3-6) (male Cy/+ rat [3]; listed as compound A) |
| --- | --- | --- | --- | --- | --- | --- | --- | --- | --- | --- | --- | --- |
| O=C([O-])[C@H](O)[C@@H](O)[C@H](O)[C@H](O)CO.O=C([O-])[C@H](O)[C@@H](O)[C@H](O)[C@H](O)CO.[Ca+2] [Ca alone, reference compound] | 4.0 ± 0.9 cc | 0.9 ± 0.2% | 10.1 ± 1.4 g | cysts are a little smaller than control animals but there appears to be a similar number | 2.8 ± 0.2 | 69 ± 18 mg/dL | 11.2 ± 1.5 mg/dL | 4.3 ± 0.8 mg/dL | 39 ± 23 pg/mL | 27 ± 11 mg/dL | – | – |
| COc1cccc([C@@H](C)NCCCc2ccccc2Cl)c1.Cl [Compound A, N-(3-[2-chlorophenyl]-propyl)-R-α-methyl-3-methoxybenzylamine HCl] | 3.1 ± 0.55 cc | 0.6 ± 0.1% | 9.5 ± 1.4 g | noticeable decrease in cyst size and number | 2.6 ± 0.2 | 79 ± 21 mg/dL | 8.2 ± 1.5 mg/dL | 5.9 ± 1.4 mg/dL | 131 ± 156 pg/mL | 31 ± 15 mg/dL | reduces cyst volume and fibrosis | magnitude was significantly greater |
